# Laboratory results from US10174037B2, “Dihydropyrazolopyrimidinone compounds as PDE2 inhibitors” (Merck Sharp & Dohme Corp., priority 2015, dated 2019).
# Target: human PDE2A1 (Homo sapiens (Human), UniProt O00408)
# Assay: PDE selectivity IMAP FP assay, human PDE2A1
# Assay type: biochemical
# Conditions: Human PDE2; Lab B; read-out: Human PDE2 Ki (nM) Lab B
# In short: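 Compound titrations run against PDE2 in Tris HCl pH 7.2 buffer with MgCl2 and DTT for 60 min at room temperature, using 50 nM FAM-cAMP plus 1000 nM cGMP and enzyme giving 20% conversion.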
# Sequence of human PDE2A1 (O00408 other isoform, or with tags, fused parts or gaps): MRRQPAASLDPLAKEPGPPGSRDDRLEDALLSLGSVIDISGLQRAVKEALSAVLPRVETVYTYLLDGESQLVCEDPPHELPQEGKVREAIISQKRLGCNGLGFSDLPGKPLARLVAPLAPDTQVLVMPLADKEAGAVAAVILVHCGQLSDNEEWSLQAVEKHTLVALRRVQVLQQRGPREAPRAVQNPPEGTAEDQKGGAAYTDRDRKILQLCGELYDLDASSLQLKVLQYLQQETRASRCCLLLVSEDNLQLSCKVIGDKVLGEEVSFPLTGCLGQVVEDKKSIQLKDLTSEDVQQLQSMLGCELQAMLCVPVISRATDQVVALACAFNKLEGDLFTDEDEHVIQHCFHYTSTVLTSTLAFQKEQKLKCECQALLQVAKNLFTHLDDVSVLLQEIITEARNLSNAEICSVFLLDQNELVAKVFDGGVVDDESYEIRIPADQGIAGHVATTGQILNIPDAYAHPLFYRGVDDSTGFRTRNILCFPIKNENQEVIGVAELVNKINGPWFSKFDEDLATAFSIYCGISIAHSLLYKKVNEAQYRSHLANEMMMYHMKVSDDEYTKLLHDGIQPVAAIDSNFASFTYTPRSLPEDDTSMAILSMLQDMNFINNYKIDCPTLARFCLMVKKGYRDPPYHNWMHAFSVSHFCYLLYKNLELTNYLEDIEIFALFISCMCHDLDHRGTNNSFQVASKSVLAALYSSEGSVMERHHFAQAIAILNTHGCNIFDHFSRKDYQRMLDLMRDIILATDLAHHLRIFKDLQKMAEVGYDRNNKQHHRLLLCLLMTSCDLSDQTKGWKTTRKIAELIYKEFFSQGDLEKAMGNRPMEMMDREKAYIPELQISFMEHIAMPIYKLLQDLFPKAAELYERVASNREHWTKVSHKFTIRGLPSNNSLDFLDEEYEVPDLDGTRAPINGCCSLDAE
row,SMILES,Ki
1,"CC(c1ccc(OC(F)F)c(F)c1)n1nc(C(F)(F)F)c2c(=O)[nH]c(O)nc21 (single isomer, unassigned) [Example 324, (S)- or (R)-1-(1-(4-(Difluoromethoxy)-3-fluorophenyl)ethyl)-6-hydroxy-3-(trifluoromethyl)-1H-pyrazolo[3,4-d]pyrimidin-4(5H)-one]",6.8 nM
2,"CCC(c1ccc(C(F)F)cc1F)n1nc(CF)c2c(=O)[nH]c(N(C)C)nc21 (single isomer, unassigned) [Example 349, (S)- or (R)-1-(1-(4-(difluoromethyl)-2-fluorophenyl)propyl)-6-(dimethylamino)-3-(fluoromethyl)-1H-pyrazolo[3,4-d]pyrimidin-4(5H)-one]",4 nM
3,"C[C@@H](c1ccc(C(F)(F)F)cc1)n1nc(CO)c2c(=O)[nH]c(N)nc21 [Example 157, 6-Amino-3-(hydroxymethyl)-1-{(1S)-1-[4-(trifluoromethyl)phenyl]ethyl}-1,5-dihydro-4H-pyrazolo[3,4-d]pyrimidin-4-one]",12 nM
4,"C[C@@H](c1ccc(C(F)(F)F)cc1)n1nc(C(F)F)c2c(=O)[nH]c(N(C)C)nc21 [Example 289, (S)-3-(Difluoromethyl)-6-(dimethylamino)-1-(1-(4-(trifluoromethyl)phenyl)ethyl)-1H-pyrazolo[3,4-d]pyrimidin-4(5H)-one]",0.25 nM
5,"CC(c1ccc(C(F)(F)F)cc1F)n1nc(CO)c2c(=O)[nH]c(N(C)C)nc21 (single isomer, unassigned) [Example 80, (R)- or (S)-6-(Dimethylamino)-1-(1-(2-fluoro-4-(trifluoromethyl)phenyl)ethyl)-3-(hydroxymethyl)-1H-pyrazolo[3,4-d]pyrimidin-4(5H)-one]",25 nM
6,"CCC(c1ccc(C(F)(F)F)c(F)c1)n1nc(CF)c2c(=O)[nH]c(N(C)C)nc21 (single isomer, unassigned) [Example 223, (S)- or (R)-6-(Dimethylamino)-1-(1-(3-fluoro-4-(trifluoromethyl)phenyl)propyl)-3-(fluoromethyl)-1H-pyrazolo[3,4-d]pyrimidin-4(5H)-one]",1.8 nM
7,"CC(C)C(c1ccc(C(F)F)c(F)c1)n1nc(CO)c2c(=O)[nH]c(N(C)C)nc21 (single isomer, unassigned) [Example 115, (R)- or (S)-1-(1-(4-(Difluoromethyl)-3-fluorophenyl)-2-methylpropyl)-6-(dimethylamino)-3-(hydroxymethyl)-1H-pyrazolo[3,4-d]pyrimidin-4(5H)-one]",0.21 nM
8,"CC(c1ccc(OC(F)(F)F)cc1F)n1nc(C(F)(F)F)c2c(=O)[nH]c(O)nc21 (single isomer, unassigned) [Example 308, (S)- or (R)-1-{1-[2-Fluoro-4-(trifluoro-methoxy)phenyl]ethyl}-6-hydroxy-3-(trifluoromethyl)-1,5-dihydro-4H-pyrazolo[3,4-d]pyrimidin-4-one]",213 nM
9,"CC(c1ccc(OC(F)(F)F)c(F)c1)n1nc(C(F)(F)F)c2c(=O)[nH]c(O)nc21 (single isomer, unassigned) [Example 310, (S)- or (R)-1-{1-[3-Fluoro-4-(trifluoromethoxy)phenyl]ethyl}-6-hydroxy-3-(trifluoromethyl)-1,5-dihydro-4H-pyrazolo[3,4-d]pyrimidin-4-one]",36 nM
10,"CC(c1ccc(OC(F)F)cc1)n1nc(C(F)(F)F)c2c(=O)[nH]c(O)nc21 (single isomer, unassigned) [Example 316, (S)- or (R)-1-{1-[4-(Difluoromethoxy)phenyl]ethyl}-6-hydroxy-3-(trifluoromethyl)-1,5-dihydro-4H-pyrazolo[3,4-d]pyrimidin-4-one]",6.1 nM
11,"CCC(c1ccc(C(F)F)cc1)n1nc(CF)c2c(=O)[nH]c(N(C)C)nc21 (single isomer, unassigned) [Example 346, (R)- or (S)-1-(1-(4-(Difluoromethyl)phenyl)propyl)-6-(dimethylamino)-3-(fluoromethyl)-1H-pyrazolo[3,4-d]pyrimidin-4(5H)-one]",6.5 nM
12,"CC(C)C(c1ccc(C(F)(F)F)cc1)n1nc(C(F)(F)F)c2c(=O)[nH]c(O)nc21 (single isomer, unassigned) [Example 333, (R)- or (S)-6-Hydroxy-1-(2-methyl-1-(4-(trifluoromethyl)phenyl)propyl)-3-(trifluoromethyl)-1H-pyrazolo[3,4-d]pyrimidin-4(5H)-one]",134 nM
13,"CC(c1ccc(OC(F)(F)F)cc1F)n1nc(C(F)(F)F)c2c(=O)[nH]c(O)nc21 (single isomer, unassigned) [Example 307, (R)- or (S)-1-{1-[2-Fluoro-4-(trifluoro-methoxy)phenyl]ethyl}-6-hydroxy-3-(trifluoromethyl)-1,5-dihydro-4H-pyrazolo-[3,4-d]pyrimidin-4-one]",10 nM
14,"CCC(c1ccc(C(F)(F)F)cc1)n1nc(CF)c2c(=O)[nH]c(N(C)C)nc21 (single isomer, unassigned) [Example 172, (R)- or (S)-6-(Dimethylamino)-3-(fluoromethyl)-1-(1-(4-(trifluoromethyl)phenyl)propyl)-1H-pyrazolo[3,4-d]pyrimidin-4(5H)-one]",2.2 nM
15,"C[C@@H](c1ccc(C(F)(F)F)cc1)n1nc(CO)c2c(=O)[nH]c(N3CCC3)nc21 [Example 158, (S)-6-(Azetidin-1-yl)-3-(hydroxymethyl)-1-(1-(4-(trifluoromethyl)phenyl)ethyl)-1,5-dihydro-4H-pyrazolo[3,4-d]pyrimidin-4-one]",0.89 nM
16,"CC(c1ccc(C(F)(F)F)cc1F)n1nc(CF)c2c(=O)[nH]c(N(C)C)nc21 (single isomer, unassigned) [Example 187, (S)- or (R)-6-(Dimethylamino)-1-(1-(2-fluoro-4-(trifluoromethyl)phenyl)ethyl)-3-(fluoromethyl)-1H-pyrazolo[3,4-d]pyrimidin-4(5H)-one]",19 nM
17,"CC1(C(c2ccc(C(F)(F)F)c(F)c2)n2nc(CC(F)(F)F)c3c(=O)[nH]c(O)nc32)CC1 (single isomer, unassigned) [Example 249, (S)- or (R)-1-((3-Fluoro-4-(trifluoromethyl)phenyl)(1-methylcyclopropyl)methyl)-6-hydroxy-3-(2,2,2-trifluoroethyl)-1H-pyrazolo[3,4-d]pyrimidin-4(5H)-one]",841 nM
18,"CC(c1ccc(CC(F)(F)F)cc1)n1nc(CF)c2c(=O)[nH]c(N(C)C)nc21 (single isomer, unassigned) [Example 174, (R)- or (S)-6-(Dimethylamino)-3-(fluoromethyl)-1-(1-(4-(2,2,2-trifluoroethyl)phenyl)ethyl)-1H-pyrazolo[3,4-d]pyrimidin-4(5H)-one]",2.7 nM
19,"CC(c1ccc(S(F)(F)(F)(F)F)cc1)n1nc(C(F)(F)F)c2c(=O)[nH]c(O)nc21 (single isomer, unassigned) [Example 311, (R)- or (S)-6-Hydroxy-1-{1-[4-(pentafluoro-lambda~6-sulfanyl)phenyl]ethyl}-3-(trifluoromethyl)-1,5-dihydro-4H-pyrazolo[3,4-d]pyrimidin-4-one]",4.9 nM
20,"CC(C)C(c1ccc(C(C)(F)F)cc1)n1nc(CO)c2c(=O)[nH]c(N)nc21 (single isomer, unassigned) [Example 357]",19 nM
21,"CC(c1ccc(S(F)(F)(F)(F)F)cc1)n1nc(C(F)(F)F)c2c(=O)[nH]c(O)nc21 (single isomer, unassigned) [Example 312, (S)- or (R)-6-Hydroxy-1-{1-[4-(pentafluoro-lambda~6-sulfanyl)phenyl]ethyl}-3-(trifluoromethyl)-1,5-dihydro-4H-pyrazolo[3,4-d]pyrimidin-4-one]",265 nM
22,"O=c1[nH]c(O)nc2c1c(C(F)(F)F)nn2C1(c2ccc(C(F)(F)F)cc2)CC1 [Example 354, 6-Hydroxy-3-(trifluoromethyl)-1-(1-(4-(trifluoromethyl)phenyl)cyclopropyl)-1H-pyrazolo[3,4-d]pyrimidin-4(5H)-one]",2.4 nM
23,"CC(C)(C)C(c1ccc(C(F)(F)F)c(F)c1)n1nc(CC(F)(F)F)c2c(=O)[nH]c(O)nc21 (single isomer, unassigned) [Example 247, (S)- or (R)-1-(1-(3-Fluoro-4-(trifluoromethyl)phenyl)-2,2-dimethylpropyl)-6-hydroxy-3-(2,2,2-trifluoroethyl)-1H-pyrazolo[3,4-d]pyrimidin-4(5H)-one]",> 2960 nM
24,"CSc1nc2c(c(CO)nn2[C@@H](C)c2ccc(C(F)(F)F)cc2)c(=O)[nH]1 [Example 301, (S)-3-(Hydroxymethyl)-6-(methylthio)-1-(1-(4-(trifluoromethyl)phenyl)ethyl)-1H-pyrazolo[3,4-d]pyrimidin-4(5H)-one]",1.8 nM
25,"CC(c1ccc(C(F)(F)F)cc1F)n1nc(C(F)(F)F)c2c(=O)[nH]c(O)nc21 (single isomer, unassigned) [Example 305]",1.9 nM
26,"CC(C)C(c1ccc(C(F)(F)F)cc1F)n1nc(CF)c2c(=O)[nH]c(N(C)C)nc21 (single isomer, unassigned) [Example 201, (S)- or (R)-6-(Dimethylamino)-1-(1-(2-fluoro-4-(trifluoromethyl)phenyl)-2-methylpropyl)-3-(fluoromethyl)-1H-pyrazolo[3,4-d]pyrimidin-4(5H)-one]",1.2 nM
27,"CC(c1ccc(C(F)(F)F)cc1F)n1nc(C(F)(F)F)c2c(=O)[nH]c(O)nc21 (single isomer, unassigned) [Example 306]",330 nM
28,"CC(c1ccc(C(C)(F)F)cc1)n1nc(CF)c2c(=O)[nH]c(N(C)C)nc21 (single isomer, unassigned) [Example 194, (R)- or (S)-1-(1-(4-(1,1-Difluoroethyl)phenyl)ethyl)-6-(dimethylamino)-3-(fluoromethyl)-1H-pyrazolo[3,4-d]pyrimidin-4(5H)-one]",6.1 nM
29,"CC(C)C(c1ccc(C(F)(F)F)cc1)n1nc(C(F)(F)F)c2c(=O)[nH]c(O)nc21 (single isomer, unassigned) [Example 334, (S)- or (R)-6-Hydroxy-1-(2-methyl-1-(4-(trifluoromethyl)phenyl)propyl)-3-(trifluoromethyl)-1H-pyrazolo[3,4-d]pyrimidin-4(5H)-one]",2.3 nM
